Measured values: US20260200983A1, “USE OF GALR2 AGONISTS TO TREAT GASTROINTESTINAL AND/OR ENDOCRINE DISORDERS” (priority 2022, published 2026)
Non-standard residues stand in square brackets, D forms with d. Residues, ends and D or L forms follow the SMILES beside them. Primed or numbered codes have the meaning given here. No end group written: not given here. PEG2′ = not defined here

How the values were obtained:
[1] = tested on: OIC mice; assay: Colonic transit time (latency to glass bead expulsion) in opioid-induced constipation (OIC) mouse model; assay type: in vivo; settings: 10 mg/kg intraperitoneally, single administration at day 7, positive control (FIG. 5)
Protocol: FIG. 4 provides the overall experimental design in assessing the effects of GALR2 agonists described herein in an opioid-induced constipation (OIC) mouse model. The upward arrows (seven total) represent the daily administration of the GALR2 agonist. The GALR2 agonist that was administered to the relevant groups was pegylated. Control animals received either a vehicle control (negative control) or bisacodyl (positive control). Animals that received a single administration (i.e., at day 7) of naloxone methiodide were also used as a positive control. At 10 minutes post last administration, each of the animals received an administration of morphine (3 mg/kg; subcutaneously). […] Colonic transit time was assessed by measuring the latency to glass bead expulsion by the animals.
FIGS. 9A and 9B show the effect of dosing schedule and administration route on GALR2 agonist-mediated regulation of colonic transit time in OIC mice. […] Colonic transit time was assessed by measuring the latency to glass bead expulsion by the animals. […]
To assess whether the GALR2 agonists described herein could be useful in treating opioid-induced constipation, an OIC mouse model was used. […] Then, a glass bead was rectally inserted, and colonic transit time was assessed by measuring the latency to glass bead expulsion by the animals. […]

[2] = molecular target: T1, hGALR2 (Homo sapiens, UniProt O43603); assay: SRE luciferase activity in mGqi-hGALR2-SRE Luc expressing cell lines; assay type: cell-based; settings: read-out: logEC50 (mean ± SEM) (converted)
T1 construct: expressed in transfected cells
T1 sequence (O43603 1-387): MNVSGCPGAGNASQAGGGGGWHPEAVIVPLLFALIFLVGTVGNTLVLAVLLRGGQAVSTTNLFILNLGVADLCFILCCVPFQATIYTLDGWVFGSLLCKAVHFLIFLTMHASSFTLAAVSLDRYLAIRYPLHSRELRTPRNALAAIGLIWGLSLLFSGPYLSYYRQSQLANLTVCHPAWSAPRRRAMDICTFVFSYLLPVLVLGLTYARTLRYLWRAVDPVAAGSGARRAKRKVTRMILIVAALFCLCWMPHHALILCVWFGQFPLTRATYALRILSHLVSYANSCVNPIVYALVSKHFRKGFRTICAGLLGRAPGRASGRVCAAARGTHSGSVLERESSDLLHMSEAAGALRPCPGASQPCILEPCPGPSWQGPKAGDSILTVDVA
Protocol: FIG. 11 provides a comparison of the in vitro potency of three different GALR2 agonist peptides with certain amino acid substitutions at the 4th amino acid position. Specifically, the GALR2 agonist peptides were as follows: (1) nWTaNAALYLFGPq-NH2 (D-alanine substitution; triangle), (2) PEG2-NWTeNAALYLFGPq-NH2 (D-glutamic acid; filled circle), and (3) PEG2-NWTrNAALYLFGPq-NH2 (D-arginine; open circle). Potency of the GALR2 agonists was assessed by measuring SRE luciferase activity in mGqi-hGALR2-SRE Luc expressing cell lines treated with the peptides.
In addition to solubility (described above in Example 8), the in vitro potency of the three GALR2 agonist peptides described in Example 7 was next assessed. Specifically, mGqi-hGALR2-SRE Luc expressing cell lines were treated with the different peptides and SRE luciferase activity was measured (as a measure of intracellular activity mediated by the GALR2 agonist peptides).

[3] = molecular target: T2, human galanin receptor type 2 (GALR2) (human, UniProt O43603 1-387); assay: cell-based or functional assay
T2 sequence: T1 sequence (O43603 1-387)

## C=CC[N+]1(C)CC[C@]23c4c5ccc(O)c4O[C@H]2C(=O)CC[C@@]3(O)[C@H]1C5 (stereo partly drawn) [naloxone methiodide, reference compound]
[1]
  colonic transit time: decrease in colonic transit time

## CC(C)C[C@H](NC(=O)[C@H](C)NC(=O)[C@H](C)NC(=O)[C@H](CC(N)=O)NC(=O)[C@@H](C)NC(=O)[C@@H](NC(=O)[C@H](Cc1c[nH]c2ccccc12)NC(=O)[C@H](N)CC(N)=O)[C@@H](C)O)C(=O)N[C@@H](Cc1ccc(O)cc1)C(=O)N[C@@H](CC(C)C)C(=O)N[C@@H](Cc1ccccc1)C(=O)NCC(=O)N1CCC[C@H]1C(=O)N[C@H](CCC(N)=O)C(N)=O [D-Alanine (SEQ ID NO: 87), nWTaNAALYLFGPq-NH2] (HELM PEPTIDE1{[dN].W.T.[dA].N.A.A.L.Y.L.F.G.P.[dQ].[am]}$$$$V2.0)
[2]
  EC50: 44.7 nM

## [PEG2′]NWT[dR]NAALYLFGP[dQ]-NH2 [PEG2-NWTrNAALYLFGPq-NH2 ([PEG-dR4-dQ14]-GALR2 Agonist, SEQ ID NO: 89)]
[3]
  EC50 fold change against the D-alanine peptide, SRE luciferase activity: ~3.5 fold
